Where a SMILES comes first, the peptide text is derived from it. Where no end group is shown, it is not given here.
B1: bovine lactadherin: bovine lactadherin, glycoprotein of milk fat globule membranes, 427 amino acid residues (protein, UniProt Q95114 19-427, looked up)
Lactadherin: ASGDFCDSSLCLHGGTCLLNEDRTPPFYCLCPEGFTGLLCNETEHGPCFPNPCHNDAECQVTDDSHRGDVFIQYICKCPLGYVGIHCETTCTSPLGMQTGAIADSQISASSMHLGFMGLQRWAPELARLHQTGIVNAWTSGNYDKNPWIQVNLMRKMWVTGVVTQGASRAGSAEYLKTFKVAYSTDGRQFQFIQVAGRSGDKIFIGNVNNSGLKINLFDTPLETQYVRLVPIICHRGCTLRFELLGCELNGCTEPLGLKDNTIPNKQITASSYYKTWGLSAFSWFPYYARLDNQGKFNAWTAQTNSASEWLQIDLGSQKRVTGIITQGARDFGHIQYVAAYRVAYGDDGVTWTEYKDPGASESKIFPGNMDNNSHKKNIFETPFQARFVRIQPVAWHNRITLRVELLGC
B2: human lactadherin: purified human lactadherin, glycoprotein of milk fat globule membranes, 387 amino acids (protein, UniProt Q08431 24-387, looked up)
Lactadherin: LDICSKNPCHNGGLCEEISQEVRGDVFPSYTCTCLKGYAGNHCETKCVEPLGLENGNIANSQIAASSVRVTFLGLQHWVPELARLNRAGMVNAWTPSSNDDNPWIQVNLLRRMWVTGVVTQGASRLASHEYLKAFKVAYSLNGHEFDFIHDVNKKHKEFVGNWNKNAVHVNLFETPVEAQYVRLYPTSCHTACTLRFELLGCELNGCANPLGLKNNSIPDKQITASSSYKTWGLHLFSWNPSYARLDKQGNFNAWVAGSYGNDQWLQVDLGSSKEVTGIITQGARNFGSVQFVASYKVAYSNDSANWTEYQDPRTGSSKIFPGNWDNHSHKKNLFETPILARYVRILPVAWHNRIALRLELLGC

Columns and labels:
[1] = test system: human rotavirus strain Wa; assay type: cell-based; conditions: for anti-rotavirus activity (in words): statement on Table 6
Method: To cultivate the rotavirus, the cell line MA-104 (monkey foetal kidney cells), obtained from the Cell Substrata Centre of the Experimental Animal Disease Institute, Brescia, Italy, was used. This cell line is cultured as a monolayer in EAGLE minimum essential medium (MEM) containing 5% heat-inactivated (56° C. for 30 minutes) bovine foetal serum (Sigma) and is maintained at 37° C. at 5% CO2.
For the in vitro infection assay, the cell line MA-104 and the human rotavirus strain Wa (TC adapted), obtained from the American Type Culture Collection (ATCC VR-2018) and propagated in MA-104 cells, were used.
To set up the assay, cells were seeded in 96-well plates and, once 80% confluence was achieved, were pre-treated for 1 hour with increasing concentrations of RGD- and/or DGE-containing peptides or their mutated counterparts and incubated at 37° C. The peptides containing the RGD or the DGE motif were used either alone or in combination. Cells were then washed with medium and infected with the pre-activated virus (5 μg/ml tripsin for 30 minutes at 37° C.) in the presence of the peptides. After a 1 hour incubation cells were washed with medium and incubated in medium containing 0.5 μg/ml tripsin and the peptides at 37° C. for 20 hours. The infected cells were visualised through an immunoperoxidase assay, using murine monoclonal antibodies specific for the capsidic protein VP6 of the rotavirus (Abcam) and the kit “UltraTech HRP Streptavidin-Biotin detection system” (Beckman Coulter). The infected cells were counted by observation under the optical microscope and the percentage of infection calculated by comparison of treated with non-treated cells.

[2] = test system: simian rotavirus strain SA11; conditions: MA104 cells, dose-dependent; Graham et al.; cited from earlier work
[3] = target: integrin proteins on the cell surface
[4] = target: integrin proteins on the cell surface; remark: listed apart in the source
[5] = target: T1, modified porcine trypsin (Sus scrofa, UniProt P00761); assay type: in vitro ADME
T1 construct: purchased Promega
Method: The peptide SEQ ID NO: 1 was dissolved in ultra pure H2O to obtain a final concentration of 10 mg/ml. Dilutions from 1:10 to 1:10,000 were obtained. All concentrations were tested by MALDI-TOF analyses. 0.5 μl of samples from dilutions 1:10, 1:100, 1:1,000, 1:10,000 were spotted onto a MALDI target plate and left to dry at RT. 0.5 μl of α-cyano-4-hydroxy-cinnamic acid in 30% acetonitrile, 0.1% TFA (HCCA matrix solution) were added to each sample and left to dry under vacuum. Spectra were obtained using a Bruker Ultraflex II MALDI-TOF/TOF mass spectrometer (Bruker Daltonics) in reflectron and positive ion mode. External calibration was performed using “Peptide calibration standard” from Bruker Daltonics.
To evaluate the digestibility of the SEQ ID NO: 1 peptide with trypsin, […] of a 0.2 μg/μl solution (25 mM NH4HCO3) of modified porcine trypsin (Promega) were added to 150 μl of the 10 mg/ml peptide solution ((25 mM NH4HCO3) enzyme to protein ratio 1:100). The sample was incubated at 37° C. and 0.5 μl were collected at different time of digestion: 5′, 15′, 30′, 60′ 90′ 120′. Each samples was spotted on MALDI target and spectra were collected as already described in Example 4a. In FIG. 5 the time course experiment evaluated by MALDI TOF analyses is shown.

[6] = target: integrin proteins on the cell surface; remark: listed apart in the source
[7] = test system: rotavirus; conditions: purified lactadherin; Kvistgaard et al., 2004; cited from earlier work
[8] = target: integrin proteins on the cell surface; remark: listed apart in the source
[9] = target: integrin proteins on the cell surface; remark: listed apart in the source

T1 sequence (P00761 9-231): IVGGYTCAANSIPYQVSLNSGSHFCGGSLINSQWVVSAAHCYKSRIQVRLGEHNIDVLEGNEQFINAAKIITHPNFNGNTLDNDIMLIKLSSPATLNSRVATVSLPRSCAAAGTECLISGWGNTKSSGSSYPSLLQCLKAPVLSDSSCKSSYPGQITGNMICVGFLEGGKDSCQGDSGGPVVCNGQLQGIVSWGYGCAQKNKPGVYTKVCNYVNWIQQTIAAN

Row | Molecule | IC50 [1] | IC50 (μg/ml) [1] | IC50 (µg/ml), inhibition of human rotavirus Wa infection of MA-104 cells [3] | further results
1 | C[C@H](NC(=O)[C@H](CCC(=O)O)NC(=O)CNC(=O)[C@@H](N)CC(=O)O)C(=O)O [DGEA, D-G-E-A, reference compound] (H-DGEA-OH; N-terminus and C-terminus assumed) | 311 µM | 121.4 µg/mL | – | inhibition of rotavirus binding to and infection of cells (in words) [2]: inhibit
2 | Control peptide D-G-E-A (Graham et al.) | – | – | 121 µg/mL | IC50 (µM), inhibition of human rotavirus Wa infection of MA-104 cells [3]: 311 µM
3 | Dendrimeric peptide of formula (VII): [[(HRGDVFT)2-Lys][(NDGECHV)2-Lys]]-Lys-β-Ala-NH2 | – | – | – | IC50, inhibition of rotavirus infection, infected cells counted by immunoperoxidase [4]: 3.6 µM
4 | EVRGDVFP [Hu-RGD, E-V-R-G-D-V-F-P, reference compound] | 104 µM | 95.3 µg/mL | – | –
5 | GPRP | – | – | – | inhibition of rotavirus binding to and infection of cells (in words) [2]: inhibit
6 | NNDGECHVIDDSHRGDVFTQ [SEQ ID NO: 7] | 13.5 µM | 30.51 µg/mL | – | anti-rotavirus activity (in words) [1]: show antiviral activity
7 | QNAGECHV [pAGE, Q-N-A-G-E-C-H-V, reference compound] | 257 µM | 219.6 µg/mL | – | –
8 | QNAGECHVIDDSHRGEVFTQ [SEQ ID NO: 10] | > 220 µM | >500 µg/mL | – | anti-rotavirus activity (in words) [1]: completely lost any anti-rotavirus activity
9 | QNDGECHV [SEQ ID NO: 3, Q-N-D-G-E-C-H-V] | 17.3 µM | 15.6 µg/mL | – | –
10 | QNDGECHVIDDSDRGDVFTQ [SEQ ID NO: 11] | 10.5 µM | 23.90 µg/mL | – | anti-rotavirus activity (in words) [1]: maintains its anti-rotavirus activity
11 | QNDGECHVIDDSHRGDVFQT [SEQ ID NO: 9] | 4.17 µM | 9.469 µg/mL | – | anti-rotavirus activity (in words) [1]: show antiviral activity
12 | QNDGECHVIDDSHRGDVFSQ [SEQ ID NO: 8] | 6.35 µM | 14.43 µg/mL | – | anti-rotavirus activity (in words) [1]: show antiviral activity
13 | QNDGECHVIDDSHRGDVFTQ [SEQ ID NO: 1, QNDGECHVIDDSHRGDVFTQ] | 1.72 µM | 3.9 µg/mL | – | integrity of the peptide on trypsin digestion [5]: didn't affect the integrity
14 | SHRGDVFI [Bo-RGD, S-H-R-G-D-V-F-I, reference compound] | 395 µM | 367.1 µg/mL | – | –
15 | SHRGDVFT [SEQ ID NO: 5, S-H-R-G-D-V-F-T] | 111 µM | 101.5 µg/mL | – | –
16 | SHRGEVFT [pRGE, S-H-R-G-E-V-F-T, reference compound] | 600 µM | 558.5 µg/mL | – | –
17 | pAGE: Q-N-A-G-E-C-H-V (DGE -> AGE mutation) (peptide) | – | – | 220 µg/mL | IC50 (µM), inhibition of human rotavirus Wa infection of MA-104 cells [3]: 257 µM
18 | pRGE: S-H-R-G-E-V-F-T (RGD -> RGE mutation) (peptide) | – | – | 558 µg/mL | IC50 (µM), inhibition of human rotavirus Wa infection of MA-104 cells [3]: 600 µM
19 | SHRGDVFT (not fully specified) [peptidic compound of SEQ ID NO: 5 (S-H-R-G-D-V-F-T)] | – | – | 102 µg/mL | IC50 (µM), inhibition of human rotavirus Wa infection of MA-104 cells, infected cells counted by immunoperoxidase [3]: 111 µM; % of inhibition of rotavirus infection at 100 µg/ml (93.3 µM), one representative experiment (% of inhibition) [6]: 46.9
20 | B1 | – | – | – | activity against rotavirus infection (in words) [7]: does not possess this activity
21 | EVRGDVFP (not fully specified) [Hu-RGD: E-V-R-G-D-V-F-P] | – | – | 95.3 µg/mL | IC50 (µM), inhibition of human rotavirus Wa infection of MA-104 cells [3]: 104 µM
22 | QNDGECHVIDDSHRGDVFTQ (not fully specified) [peptidic compound of SEQ ID NO: 1 (QNDGECHVIDDSHRGDVFTQ)] | – | – | 3.9 µg/mL | IC50 (µM), inhibition of human rotavirus Wa infection of MA-104 cells [3]: 1.72 µM; % of inhibition of rotavirus infection at 100 µg/ml (36.6 µM), one representative experiment (% of inhibition) [8]: 61
23 | QNDGECHV (not fully specified) [peptidic compound of SEQ ID NO: 3 (Q-N-D-G-E-C-H-V)] | – | – | 15.6 µg/mL | IC50 (µM), inhibition of human rotavirus Wa infection of MA-104 cells [3]: 17.3 µM; % of inhibition of rotavirus infection at 100 µg/ml (96.6 µM), one representative experiment (% of inhibition) [9]: 52.7
24 | SHRGDVFI (not fully specified) [Bo-RGD: S-H-R-G-D-V-F-I] | – | – | 367 µg/mL | IC50 (µM), inhibition of human rotavirus Wa infection of MA-104 cells [3]: 395 µM
25 | B2 | – | – | – | activity against rotavirus infection (in words) [7]: active against rotavirus infection

Reference: patent publication US8673849B2, “Lactadherin-derived peptides as antiviral agents” (priority 2010, dated 2014)
